Laboratory results as given in US10758530B2, “Carboxamide derivatives useful as rsk inhibitors” (PHOENIX MOLECULAR DESIGNS, priority 2016, dated 2020).
“Also recorded” adds a separate entry of the source. Where a name gives a salt, the structure may show the parent alone.

What was measured:
[1] = Solubility assessment (20 mg/ml solution, precipitate formation, pH strips); format: physicochemical; details: for Solubility, 20 mg/ml solution: dissolved in DMSO (100 mM); for pH of 20 mg/ml solution: dissolved in DMSO
Procedure: Solubility is an important property for therapeutic drug candidates. Poor solubility can lead to low bioavailability resulting in suboptimal drug delivery. It can also prevent the evaluation of test agents in animals because the concentration(s) needed to achieve the desired effect cannot be achieved to poor solubility. For solubility assessments, small molecules targeting RSK were compared. For these assessments, 100 mM solutions of the compounds dissolved in DMSO were diluted in DMEM growth media (Life Technologies) supplemented with fetal bovine serum (FBS, Life Technologies) and 100 units/ml penicillin and 100 units/mi streptomycin (Life Technologies) to make 20 mg/ml solutions. Once diluted, the solutions were vortexed and examined for the formation of precipitates. […] For Compound 26, a 100 mM solution of the compound dissolved in DMSO was diluted in phosphate buffered saline (Life Technologies) to make a 20 mg/ml solution. The stock of […] was chosen because this is the upper end of what would be required to dose mice for a range of studies including MTD, PK, PD and efficacy. The pH of this solution was determined to be 2, as previously described. […] At high concentrations some RSK inhibitors were highly soluble while others were not. Compound 0 is (R)—N-(1-benzyl-1H-pyrazol-4-yl)-9-methyl-6-oxo-6,7,8,9-tetrahydropyrido[3′,2′:4,5]pyrrolo[1,2-a]pyrazine-2-carboxamide. Compound 0 was not soluble, whereas Compounds 18, 20, 21, 25 and 26 were soluble under the same conditions (Table 5).

[2] = tested on: SUM149-PTXR; experiment: Monolayer growth inhibition, Alamar blue assay; format: cell-based; details: Homo sapiens, 120 h; TNBC, BRCA mutant; 5 days, single dose
Procedure: (§2) 1×10^3 cells per well were seeded for a final volume of 200 μl per well and plates were incubated for 5 days at 37° C. in a humidified incubator with 5% CO2. Following the incubation period, cell survival was quantified by Alamar blue assay (Life Technologies). Briefly, media from each well was replaced with 100 μl of phosphate buffer saline (PBS, Life Technologies) and cells were incubated with 5% Alamar blue, which incorporates a propriety redox indicator that changes colour in response to metabolic activity, for up to 2 hours. During this period of incubation, the absorbance at 570 nm and 600 nm was measured at various time points, depending on the cell line or sample. Percent survival was calculated by comparing the absorbance ratio of the test well to the control well multiplied by 100%, as indicated in the following formula:

[3] = tested on: phosphorylated Y-box binding protein-1 (YB-1) at serine 102 (P-YB-1 S102); experiment: Immunoblotting of P-YB-1 (cell signalling inhibition) in MDA-MB-231 cells
Procedure: Generation of cellular extracts: Following desired experimental conditions, breast cancer cell lines grown and treated in 6 well plates or 100 mm culture dishes (Grenier Bio-One) were placed on ice and the supernatant from each well was removed and the cells were washed in cold PBS. Following removal of PBS, cells were exposed to radioimmunoprecipitation assay (RIPA) buffer (50 mM Tris-HCl (pH 8), 150 mM NaCl, 1% NP-40, 0.5% sodium deoxycholate, 0.1% SDS; Fisher Scientific) supplemented with 1% phosphatase inhibitor (Fisher Scientific) and 1% protease inhibitor (Fisher Scientific) for 10 minutes. Samples were transferred to eppendorf tubes, vortexed and then centrifuged at 14 000 rpm for 10 minutes. Supernatants were collected as whole cell lysates. For mouse tumour tissues, each sample was place in a 35 mm culture dish with complete RIPA lysis buffer. The samples were diced in the buffer on ice with a sterile scalpel (VWR) and the buffer and tissue were transferred to an eppendorf tube. The samples were left on ice for 10 minutes with periodic vortexing every 2 to 3 minutes. The samples were then transferred to a Qiashredder (Qiagen) and centrifuged at 14 000 rpm for 2 minutes. The flow through was transferred to a new eppendorf tube and the samples were centrifuged again at 14 000 rpm for 5 minutes. Supernatants were collected as whole cell lysates.
Immunoblotting: To begin, the protein content of the lysates was measured using the Bicinchoninic Acid (BCA) Protein Assay Kit (Pierce), which included a protein standard curve generated with bovine serum albumin. […] For certain immunoblots, bands of proteins of interest were scanned and band intensity ratios were determined by densitometric analysis (ImageJ). […] To assess whether cells are actively undergoing cell death, the activity of poly ADP ribose polymerase (PARP) (1:1000 CST) was also measured using the immunoblotting method.

[4] = tested on: P-YB-1; experiment: Pharmacodynamics: P-YB-1 signalling in MDA-MB-231 xenograft tumors (immunoblotting); details: n=3 treated 3 days, n=9 treated 21 days
Procedure: For mouse tumour tissues, each sample was place in a 35 mm culture dish with complete RIPA lysis buffer. The samples were diced in the buffer on ice with a sterile scalpel (VWR) and the buffer and tissue were transferred to an eppendorf tube. The samples were left on ice for 10 minutes with periodic vortexing every 2 to 3 minutes. The samples were then transferred to a Qiashredder (Qiagen) and centrifuged at 14 000 rpm for 2 minutes. The flow through was transferred to a new eppendorf tube and the samples were centrifuged again at 14 000 rpm for 5 minutes. Supernatants were collected as whole cell lysates.
Immunoblotting: To begin, the protein content of the lysates was measured using the Bicinchoninic Acid (BCA) Protein Assay Kit (Pierce), which included a protein standard curve generated with bovine serum albumin. Appropriate volumes of samples and loading buffer (50 mM Tris-HCl (pH 6.8), 2% SDS, 10% glycerol, 1% 3-mercaptoethanol, 12.5 mM EDTA, 0.02% bromophenol blue) were mixed, ensuring that equal amounts of protein were loaded. For the majority of experiments in this study, 30 μg of protein per well was loaded. […] For certain immunoblots, bands of proteins of interest were scanned and band intensity ratios were determined by densitometric analysis (ImageJ). […]
Cell signalling was evaluated by immunoblotting. […]

[5] = tested on: All cell lines of Tables 6A/6B; experiment: Monolayer growth inhibition, Alamar blue assay, range over all cell lines; format: cell-based; details: 120 h, read-out: IC50 Values - Alamar Blue (5 Days), Range, All
Procedure: as §2

[6] = tested on: SUM149-PTXR; experiment: Monolayer growth inhibition, crystal violet assay; format: cell-based; details: Homo sapiens, 120 h; TNBC, BRCA mutant; 5 days, single dose
[7] = tested on: All cell lines of Tables 7A/7B; experiment: Monolayer growth inhibition, crystal violet assay, range over all cell lines; format: cell-based; details: 120 h, read-out: IC50 Values - Crystal Violet (5 Days), Range, All
[8] = tested on: HLA-DRA mRNA; experiment: HLA-DRA mRNA expression in MDA-MB-231 and JIMT-1 cells; format: cell-based, Human; details: Compound 16 2 or 4 uM; Compound 18 1, 2, or 4 uM
Excerpt: (§1) A key feature of cancer is low immunogenicity. This can occur by several mechanisms that allow the cells to escape immune recognition. […] HLA-DRA is a member of MHC-II genes and CIITA is the master regulator of MHC II transcription. Thus it was surprising that CIITA, which would be expected to regulate MHC II gene expression, was not altered by RSK inhibition. […] HLA-DRA is important for immune recognition while PD-L1 is involved in immune checkpoints.

[9] = tested on: CIITA; experiment: CIITA mRNA expression in MDA-MB-231 and JIMT-1 cells; format: cell-based, Human; details: Compound 16 2 or 4 uM; Compound 18 1, 2, or 4 uM
Excerpt: as §1

[10] = tested on: CD274; experiment: CD274 (PD-L1 gene) expression in MDA-MB-231 cells; format: cell-based, Human; details: Compound 16 2 or 4 uM; Compound 18 1, 2, or 4 uM
Excerpt: as §1

[11] = tested on: CD274; experiment: CD274 (PD-L1 gene) expression in JIMT-1 cells; format: cell-based, Human; details: 1-20 uM
Excerpt: as §1

[12] = diluted in DMEM, hydrochloride salt
[13] = diluted in PBS, hydrochloride salt

Compound	Solubility, 20 mg/ml solution ([1]; diluted in DMEM)	IC50 [2] [µM]	IC50 [5] [µM]	IC50 [6] [µM]	IC50 [7] [µM]	further results
C[C@@H]1CNC(=O)c2cc3ccc(C(=O)Nc4cnn(Cc5ccc(N)cc5)c4)nc3n21 [Compound 25, (R)—N-(1-(4-aminobenzyl)-1H-pyrazol-4-yl)-9-methyl-6-oxo-6,7,8,9-tetrahydropyrido[3′,2′:4,5]pyrrolo[1,2-a]pyrazine-2-carboxamide hydrochloride salt]		5.2 ± 4.2				Solubility for systemic delivery in mice (qualitative) [1]: superior solubility; Solubility, 20 mg/ml solution [1, 12]: Soluble; pH of 20 mg/ml solution [1, 12]: 2; Loss of P-YB-1 ([3]; 0.01, 0.1, 1, or 10 uM, 24 hrs): dose dependent loss of P-YB-1; Tumors with reduced P-YB-1 signaling (3 and 21 days combined) [4]: 12/12
C[C@@H]1CNC(=O)c2cc3ccc(C(=O)Nc4cnn(Cc5ccc(CN)cc5)c4)nc3n21 [Compound 26, (R)—N-(1-(4-(aminomethyl)benzyl)-1H-pyrazol-4-yl)-9-methyl-6-oxo-6,7,8,9-tetrahydropyrido[3′,2′:4,5]pyrrolo[1,2-a]pyrazine-2-carboxamide hydrochloride salt]		8.8 ± 2.5	1.9 to 15.5	6.5 ± 2.1	1.5 to 12.3	Solubility, 20 mg/ml solution [1, 13]: Soluble; pH of 20 mg/ml solution [1, 13]: 2-9
C[C@@H]1CNC(=O)c2cc3ccc(NC(=O)c4cnn(Cc5ccccc5)c4)cc3n21 [Compound 11, (R)-1-benzyl-N-(4-methyl-1-oxo-1,2,3,4-tetrahydropyrazino[1,2-a]indol-7-yl)-1H-pyrazole-4-carboxamide]		36.4 ± 11.9		44.6 ± 3.9		
C[C@@H]1CNC(=O)c2cc3ccc(NC(=O)c4cnn(Cc5ccccc5)c4)nc3n21 [Compound 15, (R)-1-benzyl-N-(9-methyl-6-oxo-6,7,8,9-tetrahydropyrido[3′,2′:4,5]pyrrolo[1,2-a]pyrazin-2-yl)-1H-pyrazole-4-carboxamide]		9.2 ± 3	3.6 to 21.3	8.8 ± 2.2	5.9 to 21	
C[C@@H]1CNC(=O)c2cc3ccc(C(=O)Nc4cnn(Cc5ccc(F)cc5F)c4)nc3n21 [Compound 23, (R)—N-(1-(2,4-difluorobenzyl)-1H-pyrazol-4-yl)-9-methyl-6-oxo-6,7,8,9-tetrahydropyrido[3′,2′:4,5]pyrrolo[1,2-a]pyrazine-2-carboxamide]	Precipitate	5.1 ± 4	1.1 to 19.8	5 ± 2.4	1.1 to 15	
C[C@@H]1CNC(=O)c2cc3ccc(NC(=O)c4cnn(Cc5cccc(N)c5)c4)nc3n21 [Compound 19, (R)-1-(3-aminobenzyl)-N-(9-methyl-6-oxo-6,7,8,9-tetrahydropyrido[3′,2′:4,5]pyrrolo[1,2-a]pyrazin-2-yl)-1H-pyrazole-4-carboxamide]		14.1 ± 4.3	10.5 to 37.3	13 ± 1.3	7.4 to 34	
C[C@@H]1CNC(=O)c2cc3ccc(C(=O)Nc4cnn(Cc5cccc(N)c5)c4)nc3n21 [Compound 16, (R)—N-(1-(3-aminobenzyl)-1H-pyrazol-4-yl)-9-methyl-6-oxo-6,7,8,9-tetrahydropyrido[3′,2′:4,5]pyrrolo[1,2-a]pyrazine-2-carboxamide]		2.5 ± 0.4	0.9 to 17.4	3.5 ± 1.2	1.2 to 13.3	HLA-DRA mRNA levels [8]: elevated levels of HLA-DRA mRNA; mRNA expression of CIITA [9]: little effect; Levels of CD274 in MDA-MB-231 cells [10]: reduced levels of CD274; Loss of P-YB-1 ([3]; 0.01-1 uM, 96 hrs): dose dependent loss of P-YB-1
C[C@@H]1CNC(=O)c2cc3ccc(C(=O)Nc4cnn(Cc5ccccc5N)c4)nc3n21 [Compound 17, (R)—N-(1-(2-aminobenzyl)-1H-pyrazol-4-yl)-9-methyl-6-oxo-6,7,8,9-tetrahydropyrido[3′,2′:4,5]pyrrolo[1,2-a]pyrazine-2-carboxamide]		4.2 ± 1.5	1.2 to 12.6	5.2 ± 0.6	1 to 8.9	
C[C@@H]1CNC(=O)c2cc3ccc(C(=O)Nc4cnn(Cc5ccccc5)c4)nc3n21 [Compound 0, (R)—N-(1-benzyl-1H-pyrazol-4-yl)-9-methyl-6-oxo-6,7,8,9-tetrahydropyrido[3′,2′:4,5]pyrrolo[1,2-a]pyrazine-2-carboxamide, reference compound]	not soluble; also recorded: Precipitate					Solubility for systemic delivery in mice (qualitative) [1]: poor or nonexistent solubility

The next lines start with results.

Solubility, 20 mg/ml solution ([1]; diluted in DMEM)	Compound	IC50 [2] [µM]	IC50 [5] [µM]	IC50 [6] [µM]	IC50 [7] [µM]	further results
Precipitate	C[C@@H]1CNC(=O)c2cc3ccc(C(=O)Nc4cnn(Cc5ccc(C(F)(F)F)cc5)c4)nc3n21 [Compound 22, (R)-9-methyl-6-oxo-N-(1-(4-(trifluoromethyl)benzyl)-1H-pyrazol-4-yl)-6,7,8,9-tetrahydropyrido[3′,2′:4,5]pyrrolo[1,2-a]pyrazine-2-carboxamide]	7.8 ± 4.6	4.5 to 17.1	8 ± 1.3	2.6 to 14.2	
Soluble	C[C@@H]1CNC(=O)c2cc3ccc(C(=O)Nc4ccccc4C(N)=O)nc3n21 [Compound 21, (R)—N-(2-carbamoylphenyl)-9-methyl-6-oxo-6,7,8,9-tetrahydropyrido[3′,2′:4,5]pyrrolo[1,2-a]pyrazine-2-carboxamide]	1.5 ± 0.8	1.2 to 14.7	2 ± 0.2	1.1 to 11.3	pH of 20 mg/ml solution ([1]; diluted in DMEM): 9
Precipitate	C[C@@H]1CNC(=O)c2c(Cl)c3ccc(C(=O)Nc4cnn(Cc5ccccc5)c4)nc3n21 [Compound 24, (R)—N-(1-benzyl-1H-pyrazol-4-yl)-5-chloro-9-methyl-6-oxo-6,7,8,9-tetrahydropyrido[3′,2′:4,5]pyrrolo[1,2-a]pyrazine-2-carboxamide]	3.4 ± 2.1	0.5 to 12.3	4.5 ± 1.4	0.3 to 9.1	
Soluble	C[C@@H]1CNC(=O)c2cc3ccc(C(=O)Nc4cnn(CC5CCN(C)CC5)c4)nc3n21 [Compound 20, (R)-9-methyl-N-(1-((1-methylpiperidin-4-yl)methyl)-1H-pyrazol-4-yl)-6-oxo-6,7,8,9-tetrahydropyrido[3′,2′:4,5]pyrrolo[1,2-a]pyrazine-2-carboxamide]					pH of 20 mg/ml solution ([1]; diluted in DMEM): 8
Soluble	C[C@@H]1CNC(=O)c2cc3ccc(C(=O)Nc4cnn(Cc5ccc(N)cc5)c4)nc3n21 [Compound 18, (R)—N-(1-(4-aminobenzyl)-1H-pyrazol-4-yl)-9-methyl-6-oxo-6,7,8,9-tetrahydropyrido[3′,2′:4,5]pyrrolo[1,2-a]pyrazine-2-carboxamide]					pH of 20 mg/ml solution ([1]; diluted in DMEM): 9; HLA-DRA mRNA levels [8]: elevated levels of HLA-DRA mRNA; mRNA expression of CIITA [9]: little effect; Levels of CD274 in MDA-MB-231 cells [10]: reduced levels of CD274; CD274 in JIMT-1 cells [11]: inhibited CD274; Loss of P-YB-1 ([3]; 0.01-1 uM, 96 hrs): dose dependent loss of P-YB-1
